Data taken from ChEMBL document CHEMBL1201862, “PubChem BioAssay data set” (2004).
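Cells were grown in 96-well plates and exposed to each compound for 48 hours at five concentrations; endpoints were interpolated linearly between bracketing concentrations, or set to the highest concentration if not reached. At the GI50, growth is halved.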 The source made the active and inactive calls. Cut-off read from the data, not from the text of the source: active = GI50 up to about 1.1 µM and inactive = higher.

Key:
Assay in all cases: DTP human tumour cell line panel, 48 h
786-0 = test system: 786-0
A498 = test system: A498
ACHN = test system: ACHN
BT-549 = test system: BT-549
CAKI-1 = test system: CAKI-1
CCRF-CEM = test system: CCRF-CEM
COLO 205 = test system: COLO 205
DU-145 = test system: DU-145
EKVX = test system: EKVX
HCC 2998 = test system: HCC 2998
HCT-116 = test system: HCT-116
HCT-15 = test system: HCT-15
HL-60 = test system: HL-60
HOP-62 = test system: HOP-62
HOP-92 = test system: HOP-92
HT-29 = test system: HT-29
Hs-578T = test system: Hs-578T
IGROV-1 = test system: IGROV-1
K562 = test system: K562
KM12 = test system: KM12
LOX IMVI = test system: LOX IMVI
M14 = test system: M14
MCF7 = test system: MCF7
MDA-MB-231 = test system: MDA-MB-231
MDA-MB-435 = test system: MDA-MB-435
MDA-N = test system: MDA-N
MOLT-4 = test system: MOLT-4
Malme-3M = test system: Malme-3M
NCI-H226 = test system: NCI-H226
NCI-H23 = test system: NCI-H23
NCI-H460 = test system: NCI-H460
NCI-H522 = test system: NCI-H522
NCI/ADR-RES = test system: NCI/ADR-RES
OVCAR-3 = test system: OVCAR-3
OVCAR-4 = test system: OVCAR-4
OVCAR-5 = test system: OVCAR-5
OVCAR-8 = test system: OVCAR-8
PC-3 = test system: PC-3
RPMI-8226 = test system: RPMI-8226
RXF 393 = test system: RXF 393
SF-268 = test system: SF-268
SF-295 = test system: SF-295
SF-539 = test system: SF-539
SK-MEL-28 = test system: SK-MEL-28
SK-MEL-2 = test system: SK-MEL-2
SK-MEL-5 = test system: SK-MEL-5
SK-OV-3 = test system: SK-OV-3
SN12C = test system: SN12C
SNB-19 = test system: SNB-19
SR = test system: SR
SW-620 = test system: SW-620
T47D = test system: T47D
TK-10 = test system: TK-10
U-251 = test system: U-251
UACC-257 = test system: UACC-257
UACC-62 = test system: UACC-62
UO-31 = test system: UO-31
A549 = test system: A549
SNB-75 = test system: SNB-75

## NNC(=O)CCc1ccc2ccc3ccccc3c2c1
786-0
  GI50: 94.4 µM (inactive)
A498
  GI50: 49.2 µM (inactive)
ACHN
  GI50: > 100 µM (inactive)
BT-549
  GI50: 55.8 µM (inactive)
CAKI-1
  GI50: 54.3 µM (inactive)
CCRF-CEM
  GI50: > 100 µM (inactive)
COLO 205
  GI50: > 100 µM (inactive)
DU-145
  GI50: > 100 µM (inactive)
EKVX
  GI50: 16.4 µM (inactive)
HCC 2998
  GI50: > 100 µM (inactive)
HCT-116
  GI50: > 100 µM (inactive)
HCT-15
  GI50: 82 µM
HL-60
  GI50: 0.312 µM (active)
HOP-62
  GI50: > 100 µM (inactive)
HOP-92
  GI50: 58.7 µM (inactive)
HT-29
  GI50: > 100 µM (inactive)
Hs-578T
  GI50: 57.7 µM (inactive)
IGROV-1
  GI50: > 100 µM (inactive)
K562
  GI50: > 100 µM (inactive)
KM12
  GI50: > 100 µM (inactive)
LOX IMVI
  GI50: 98.9 µM (inactive)
M14
  GI50: 71.8 µM (inactive)
MCF7
  GI50: > 100 µM (inactive)
MDA-MB-231
  GI50: > 100 µM (inactive)
MDA-MB-435
  GI50: > 100 µM (inactive)
MDA-N
  GI50: > 100 µM (inactive)
MOLT-4
  GI50: 63.5 µM (inactive)
Malme-3M
  GI50: 79.1 µM (inactive)
NCI-H226
  GI50: 15.9 µM (inactive)
NCI-H23
  GI50: > 100 µM (inactive)
NCI-H460
  GI50: > 100 µM (inactive)
NCI-H522
  GI50: 28.8 µM (inactive)
NCI/ADR-RES
  GI50: 89.1 µM (inactive)
OVCAR-3
  GI50: 29.9 µM (inactive)
OVCAR-4
  GI50: 74.6 µM (inactive)
OVCAR-5
  GI50: > 100 µM (inactive)
OVCAR-8
  GI50: > 100 µM (inactive)
PC-3
  GI50: 67.3 µM (inactive)
RPMI-8226
  GI50: 72.1 µM (inactive)
RXF 393
  GI50: 94.4 µM (inactive)
SF-268
  GI50: 62.2 µM (inactive)
SF-295
  GI50: 78.7 µM (inactive)
SF-539
  GI50: 54.6 µM (inactive)
SK-MEL-28
  GI50: > 100 µM (inactive)
SK-MEL-2
  GI50: > 100 µM (inactive)
SK-MEL-5
  GI50: 92.3 µM (inactive)
SK-OV-3
  GI50: > 100 µM (inactive)
SN12C
  GI50: 68.1 µM (inactive)
SNB-19
  GI50: 85.7 µM (inactive)
SR
  GI50: > 100 µM (inactive)
SW-620
  GI50: > 100 µM (inactive)
T47D
  GI50: 70.6 µM (inactive)
TK-10
  GI50: > 100 µM (inactive)
U-251
  GI50: > 100 µM (inactive)
UACC-257
  GI50: > 100 µM (inactive)
UACC-62
  GI50: > 100 µM (inactive)
UO-31
  GI50: 18.8 µM (inactive)

## C[C@@H]1CCC2[C@@H](C)[C@@H](O[C@H]3O[C@@H]4O[C@@]5(C)CCC6[C@H](C)CCC([C@H]3C)[C@]64OO5)O[C@@H]3O[C@@]4(C)CCC1[C@@]23OO4 (stereo partly drawn)
786-0
  GI50: 21.9 µM (inactive)
A498
  GI50: > 25 µM (inactive)
A549
  GI50: 18.6 µM (inactive)
ACHN
  GI50: 3.27 µM (inactive)
BT-549
  GI50: 1.23 µM (inactive)
CAKI-1
  GI50: > 25 µM (inactive)
CCRF-CEM
  GI50: 7.46 µM (inactive)
COLO 205
  GI50: 1.17 µM (inactive)
DU-145
  GI50: > 25 µM (inactive)
EKVX
  GI50: 2.07 µM (inactive)
HCC 2998
  GI50: > 25 µM (inactive)
HCT-116
  GI50: 0.659 µM (active)
HCT-15
  GI50: 0.733 µM
HL-60
  GI50: 0.5 µM (active)
HOP-62
  GI50: > 25 µM (inactive)
HOP-92
  GI50: 3.63 µM (inactive)
HT-29
  GI50: 1.31 µM (inactive)
Hs-578T
  GI50: 7.05 µM (inactive)
IGROV-1
  GI50: > 25 µM (inactive)
K562
  GI50: 1.04 µM (active)
KM12
  GI50: 0.865 µM (active)
LOX IMVI
  GI50: 0.973 µM (active)
M14
  GI50: > 25 µM (inactive)
MCF7
  GI50: 1.51 µM (inactive)
MDA-MB-231
  GI50: > 25 µM (inactive)
MDA-MB-435
  GI50: 6.97 µM (inactive)
MDA-N
  GI50: 2.65 µM (inactive)
MOLT-4
  GI50: 2.17 µM (inactive)
NCI-H226
  GI50: > 15.6 µM (inactive)
NCI-H23
  GI50: 1.1 µM (active)
NCI-H460
  GI50: > 25 µM (inactive)
NCI-H522
  GI50: 0.861 µM (active)
NCI/ADR-RES
  GI50: 1.45 µM (inactive)
OVCAR-3
  GI50: 7.45 µM (inactive)
OVCAR-4
  GI50: 7.62 µM (inactive)
OVCAR-5
  GI50: > 25 µM (inactive)
OVCAR-8
  GI50: 1.19 µM (inactive)
PC-3
  GI50: 0.18 µM (active)
RPMI-8226
  GI50: 0.586 µM (active)
RXF 393
  GI50: > 12.6 µM (inactive)
SF-268
  GI50: > 25 µM (inactive)
SF-295
  GI50: > 16.7 µM (inactive)
SF-539
  GI50: > 5.51 µM (inactive)
SK-MEL-28
  GI50: > 25 µM (inactive)
SK-MEL-2
  GI50: 16 µM (inactive)
SK-MEL-5
  GI50: 3.44 µM (inactive)
SK-OV-3
  GI50: > 25 µM (inactive)
SN12C
  GI50: 16.7 µM (inactive)
SNB-19
  GI50: > 25 µM (inactive)
SNB-75
  GI50: > 10.8 µM (inactive)
SR
  GI50: 0.724 µM (active)
SW-620
  GI50: 1.16 µM (inactive)
T47D
  GI50: 1.17 µM (inactive)
TK-10
  GI50: > 20 µM (inactive)
U-251
  GI50: > 25 µM (inactive)
UACC-257
  GI50: > 25 µM (inactive)
UACC-62
  GI50: 1.99 µM (inactive)
UO-31
  GI50: 1.71 µM (inactive)

## COC(=O)CCC(C)C1CCC2C3CCC4CC5CCC4(C)C3(O5)C(Br)C(Br)C12C (stereo not drawn)
786-0
  GI50: > 100 µM (inactive)
A498
  GI50: > 100 µM (inactive)
A549
  GI50: > 100 µM (inactive)
ACHN
  GI50: > 100 µM (inactive)
BT-549
  GI50: > 100 µM (inactive)
CAKI-1
  GI50: > 100 µM (inactive)
COLO 205
  GI50: > 100 µM (inactive)
DU-145
  GI50: > 100 µM (inactive)
EKVX
  GI50: > 100 µM (inactive)
HCC 2998
  GI50: > 100 µM (inactive)
HCT-116
  GI50: 78.9 µM (inactive)
HCT-15
  GI50: > 100 µM
HL-60
  GI50: 2.55 µM (inactive)
HOP-62
  GI50: > 100 µM (inactive)
HOP-92
  GI50: > 100 µM (inactive)
HT-29
  GI50: 56.2 µM (inactive)
Hs-578T
  GI50: > 100 µM (inactive)
IGROV-1
  GI50: > 100 µM (inactive)
K562
  GI50: > 100 µM (inactive)
KM12
  GI50: > 100 µM (inactive)
LOX IMVI
  GI50: > 100 µM (inactive)
M14
  GI50: > 100 µM (inactive)
MCF7
  GI50: > 100 µM (inactive)
MDA-MB-231
  GI50: > 100 µM (inactive)
MDA-MB-435
  GI50: > 100 µM (inactive)
MDA-N
  GI50: > 100 µM (inactive)
MOLT-4
  GI50: > 100 µM (inactive)
Malme-3M
  GI50: > 100 µM (inactive)
NCI-H226
  GI50: 45.4 µM (inactive)
NCI-H23
  GI50: > 100 µM (inactive)
NCI-H460
  GI50: > 100 µM (inactive)
NCI-H522
  GI50: 48.2 µM (inactive)
NCI/ADR-RES
  GI50: > 100 µM (inactive)
OVCAR-3
  GI50: > 100 µM (inactive)
OVCAR-4
  GI50: > 100 µM (inactive)
OVCAR-5
  GI50: > 100 µM (inactive)
OVCAR-8
  GI50: > 100 µM (inactive)
PC-3
  GI50: > 100 µM (inactive)
RPMI-8226
  GI50: 67.6 µM (inactive)
RXF 393
  GI50: > 100 µM (inactive)
SF-268
  GI50: > 100 µM (inactive)
SF-295
  GI50: > 100 µM (inactive)
SF-539
  GI50: 85.1 µM (inactive)
SK-MEL-28
  GI50: > 100 µM (inactive)
SK-MEL-2
  GI50: > 100 µM (inactive)
SK-MEL-5
  GI50: 72.9 µM (inactive)
SK-OV-3
  GI50: > 100 µM (inactive)
SN12C
  GI50: > 100 µM (inactive)
SNB-19
  GI50: > 100 µM (inactive)
SNB-75
  GI50: > 100 µM (inactive)
SR
  GI50: > 100 µM (inactive)
SW-620
  GI50: > 100 µM (inactive)
T47D
  GI50: 61.9 µM (inactive)
TK-10
  GI50: > 100 µM (inactive)
U-251
  GI50: > 100 µM (inactive)
UACC-257
  GI50: > 100 µM (inactive)
UACC-62
  GI50: > 100 µM (inactive)
UO-31
  GI50: > 100 µM (inactive)
